Measured values taken from patent publication US5064852A, “Indolinone derivatives” (Pfizer Inc., priority 1990, dated 1991).

Legend:
aldose reductase = biological target: T1, aldose reductase (Homo sapiens, UniProt P15121); experiment: inhibition of aldose reductase enzyme activity (procedure of S. Hayman et al. as modified by K. Sestanj et al.); type: biochemical; settings: for inhibition at 10 µM: 10^-5 M, partially purified aldose reductase from human placenta; for aldose reductase inhibitor potency (in words): no concentration given
T1 construct: partially purified aldose reductase enzyme obtained from human placenta; from tissue; host or cells: human placenta
Protocol: (§1) The activity of the compounds of the present invention, as agents for the control of chronic diabetic complications, is determined by their ability to successfully pass one or more of the following standard biological or pharmacological tests, viz., (1) measuring their ability to inhibit the enzyme activity of isolated aldose reductase; (2) measuring their ability to reduce or inhibit sorbitol accumulation in the sciatic nerve of acutely streptozotocinized (i.e., diabetic) rats; (3) measuring their ability to reverse already-elevated sorbitol levels in the sciatic nerve and lens of chronic streptozotocin-induced diabetic rats; (4) measuring their ability to prevent or inhibit galactitol formation in the lens of acutely galactosemic rats, and (5) measuring their ability to delay cataract formation and reduce the severity of lens opacities in chronic galactosemic rats.
The following oxindole-1-alkanoic acid final products of Examples 1-12, respectively, were tested at a concentration level of 10^-5 M for their ability to reduce or inhibit aldose reductase enzyme activity via the procedure of S. Hayman et al., as described in the Journal of Biological Chemistry, Vol. 240, p. 877 (1965) and as modified by K. Sestanj et al. in U.S. Pat. No. 3,821,383. In every case, the substrate employed was partially purified aldose reductase enzyme obtained from human placenta.

[1] = tested on: sorbitol levels in diabetic rats; experiment: inhibition of sorbitol formation in diabetic rats, oral route; type: in vivo, rat; settings: dose levels ranging from 0.75 mg./kg. to 20 mg./kg.
Description: As previously indicated, the 3-substituted 2-oxo-indoline-1-alkanoic acid compounds of this invention are readily adapted to therapeutic use as aldose reductase inhibitors for the control of chronic diabetic complications, in view of their ability to reduce lens sorbitol levels in diabetic subjects to a statistically significant degree. […] Furthermore, the herein described compounds of this invention can be administered by either the oral or parenteral routes of administration. […]
as §1

SMILES | inhibition at 10 µM (aldose reductase) | aldose reductase inhibitor potency (in words) (aldose reductase) | inhibition of the formation of sorbitol levels in diabetic rats (in words) [1]
O=C(O)CN1C(=O)C(Cc2ccc(Cl)c(Cl)c2)c2ccc(F)cc21 (stereo not drawn) [Example 3, 3-(3,4-dichlorobenzyl)-6-fluoro-2-oxo-indoline-1-acetic acid] | 68% |  | 
O=C(O)CN1C(=O)C(Cc2ccc(Cl)c(Cl)c2)(Cc2ccc(Cl)c(Cl)c2)c2ccccc21 [Example 10, 3,3-di(3,4-dichlorobenzyl)-2-oxo-indoline-1-acetic acid] | 20% |  | 
COc1ccc2c(c1)N(CC(=O)O)C(=O)C2Cc1ccc(Cl)c(Cl)c1 (stereo not drawn) [Example 5, 3-(3,4-dichlorobenzyl)-6-methoxy-2-oxo-indoline-1-acetic acid] | 81% | highly potent | 
O=C(O)CN1C(=O)C2(Cc3ccc(Cl)cc3C2)c2ccccc21 (stereo not drawn) [Example 9, 5(6)-chloro-1,2-dihydro-spiro-inden[2,3']indolin-2'-one-1'-acetic acid] | 71% |  | 
COc1cc2c(cc1OC)N(CC(=O)O)C(=O)C2Cc1ccc(Cl)c(Cl)c1 (stereo not drawn) [Example 4, 3-(3,4-dichlorobenzyl)-5,6-dimethoxy-2-oxo-indoline-1-acetic acid] | 55% |  | 
O=C(O)CN1C(=O)C2(Cc3ccccc3C2)c2ccccc21 [Example 8, 1,2-dihydro-spiro-inden[2,3']indolin-2'-one-1'-acetic acid] | 66% |  | 

More lines, main results first:

inhibition at 10 µM (aldose reductase) | aldose reductase inhibitor potency (in words) (aldose reductase) | SMILES | inhibition of the formation of sorbitol levels in diabetic rats (in words) [1]
72% |  | CC(c1ccc(Cl)c(Cl)c1)C1(C)C(=O)N(CC(=O)O)c2ccccc21 (stereo not drawn) [Example 11, 3-(3,4-dichloro-α-methylbenzyl)-3-methyl-2-oxo-indoline-1-acetic acid] | 
25% |  | CC(C(=O)O)N1C(=O)C(Cc2ccc(Cl)c(Cl)c2)c2ccccc21 (stereo not drawn) [Example 6, 3-(3,4-dichlorobenzyl)-2-oxo-indoline-1-(α-methyl)acetic acid] | 
94% | highly potent | CC(c1ccc(Cl)c(Cl)c1)C1C(=O)N(CC(=O)O)c2ccccc21 (stereo not drawn) [Example 7, 3-(3,4-dichloro-α-methylbenzyl)-2-oxo-indoline-1-acetic acid] | 
92% | highly potent | O=C(O)CN1C(=O)C(Cc2ccc(Cl)c(Cl)c2)c2ccccc21 (stereo not drawn) [Example 1, 3-(3,4-dichlorobenzyl)-2-oxo-indoline-1-acetic acid] | significantly high degree
79% | highly potent | O=C(O)CN1C(=O)C(Cc2ccc(Cl)c(Cl)c2)c2ccc(O)cc21 (stereo not drawn) [Example 12, 3-(3,4-dichlorobenzyl)-6-hydroxy-2-oxo-indoline-1-acetic acid] | 
88% | highly potent | O=C(O)CN1C(=O)C(Cc2ccc(Cl)c(Cl)c2)c2cc(Cl)ccc21 (stereo not drawn) [Example 2, 5-chloro-3-(3,4-dichlorobenzyl)-2-oxo-indoline-1-acetic acid] | 
